# Experimental data reported in US20260234165A1, “MACROCYCLIC COMPOUNDS, PREPARATION METHOD THEREFOR, AND USE THEREOF” (GENFLEET THERAPEUTICS (SHANGHAI) INC., priority 2004, published 2026).
# Where two headings read alike, the source gives them in different places.
# Columns and labels:
# Format in all cases: cell-based, human
# [1] = tested on: AsPC-1 cells (KRAS G12D mutation); assay: 3D cell proliferation assay (CellTiter Glo-3D), AsPC-1; settings: medium with 2% FBS, read-out: AsPC-1 AP IC50
# From the text: MIA PaCa-2 cells were purchased from ATCC, Cat. No. CRL-1420; AsPC-1 cells were purchased from ATCC, Cat. No. CRL-1682; NCI-H441 cells were purchased from ATCC, Cat. No. HTB-174: NCI-H1975 cells were purchased from ATCC. Cat. No. CRL-5908; DMEM medium was purchased from Gibco, Cat. No. 11995-065: RPMI-1040 medium was purchased from Gibco. Cat. No. H 18754093; FBS was purchased from Gibco, Cat. No. 10099-141C. penicillin, streptomycin double-antibiotic solution (PS) was purchased from Gibco, Cat. No. 15140-122; Horse serum was purchased from Gibco. Cat. No. 16050130: trypsin (containing EDTA) was purchased from Gibco, Cat. No. 25200-072; DMSO was purchased from VWRAMRESCO, Cat. No. 0231-500ML; 384-well cell culture plates were purchased from Corning, Cat. No. 3830; white-bottomed, opaque 384-well assay plates were purchased from Corning, Cat. No. 3570. CellTiter Glo-3D) kit was purchased from Promega. Cat. No. G9683; cell counter was purchased from CHEMOMETEC, model: NC-200: microplate reader was purchased from PerkinElmer, model: EnVision.
# MIA PaCa-2, a human pancreatic cancer cell strain endogenously containing a KRAS^G12C mutation, was cultured in a complete medium containing DMEM+10% FBS+2.5% Horse serum+1% PS. AsPC-1, a human pancreatic cancer cell strain endogenously containing a […] mutation, was cultured in a complete medium containing RPMI-1640+10% FBS+1% PS. NCI-H441 cells, a human lung cancer cell strain endogenously containing a […] mutation, were cultured in a complete medium containing RPMI-1640+10% FBS+1% PS. NCI-H1975, a KRAS wild-type human lung cancer cell strain whose cell proliferation depends on KRAS activity, was cultured in a complete medium containing RPMI-1640+10% FBS+1% PS.
# The cells were digested with trypsin (containing EDTA), collected in their respective low-serum complete media containing 2% FBS (for MIA Paca-2 cell culture: DMEM+2% FBS+0.5% Horse serum+1% PS), and counted. After the cell density was adjusted as required, 200 MIA PaCa-2 cells, 800 AsPC-1 cells, 800 NCI-H441 cells, or 400 NCI-H1975 cells per well were seeded into a 384-well cell culture plate, with the volume of the medium in each well being 45 μL. The cell culture plate was incubated in an incubator at 37° C. with 5% CO2, overnight. A series of 3.16-fold gradient dilutions of a 1000× compound stock solution were prepared with DMSO, and then diluted 100-fold with the complete medium containing 2% FBS described above to give 10- compound stock solutions. On the day after cell seeding, 5 μL of the 10- compound stock solution was added to each cell culture well. As a result, the final concentration of the compound in the cell culture well became 1×, and the DMSO content in the well was 0.1%. In addition to the compound-treated wells described above, cell-containing DMSO control wells (with 5 μL of the complete medium containing 1% DMSO added to each well) and cell-free medium control wells (containing 50 μL of the complete medium with 2% FBS) were also set. The culture plate was incubated in an incubator at 37° C. with 5% CO2 for another 5 days, and then 30 μL of CellTiter-Glo working solution was added to each well. The mixture was well mixed, incubated for 30 min, left to stand at room temperature for 30 min, and then transferred to a white-bottomed, opaque 384-well assay plate at 40 μL/well. The chemiluminescence values (RLU) were measured using a microplate reader, and the cell proliferation inhibition rate for each well was calculated: IR (%)=(RLUDMSO—RLUcompound)/(RLUDMSO−RLUblank)×100%, where RLUDMSO is the average RLU signal value from the DMSO control well samples, RLUblank is the average RLU signal value from the medium control well samples, and RLUcompound is the RLU signal value from the compound-treated well samples. […]
# NCI-H441 cells = assay: 3D cell proliferation assay (CellTiter Glo-3D), NCI-H441; settings: medium with 2% FBS, read-out: H441 AP IC50
# Summary of the method: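 Luminescence read-out (CellTiter-Glo 3D) after 5-day compound exposure at 37 °C, 5% CO2. Cells: NCI-H441 and AsPC-1, 800/well, RPMI-1640 + 2% FBS, 0.1% DMSO final. IC50 by four-parameter fit of % inhibition against log concentration.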
# [2] = tested on: p-ERK in NCI-H441 cells (KRAS G12V mutation); assay: Cell p-ERK assay (HTRF) in NCI-H441 cells; settings: NCI-H441 cells, 3 h compound incubation, HTRF p-ERK T202/Y204, read-out: H441 p-ERK IC50
# Summary of the method: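 Seed 10000 AsPC-1 or 20000 NCI-H441 cells/well, overnight 37 °C/5% CO2. Cpd 3.16-fold series, 0.1% DMSO final, 3 h. Lyse 30 min, HTRF p-ERK (T202/Y204) Ab 4 h. IC50: 4-parameter fit of IR% normalised to DMSO and blank.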
# [3] = Homo sapiens, ASPC1, 3D cell proliferation (CellTiter Glo-3D)
# [4] = Homo sapiens, NCI-H441, 3D cell proliferation (CellTiter Glo-3D)
# [5] = 3D cell proliferation (CellTiter Glo-3D)
Compound,"IC50 [1, 3]",IC50 (NCI-H441 cells; [4]),"IC50 ([2]; Homo sapiens, NCI-H441, 3 h)","IC50 [1, 5]",IC50 (NCI-H441 cells; [5]),IC50 [2]
"CO[C@@H](C)c1ncc(C#CCN2CCS(=O)(=O)CC2)cc1-c1c2c3cc(ccc3n1C(C)C)-c1csc(n1)C[C@H](Nc1nnc3cc(C)ccn13)C(=O)N1CCC[C@H](N1)C(=O)OCC(C)(C)C2 (atropisomer, axis not shown; (Ra)) [Compound Z913-1, (6^3S,4S,Z)—(Ra)-1^1-(5-(3-(1,1-dioxidothiomorpholino)prop-1-yn-1-yl)-2-((S)-1-methoxyethyl)pyridin-3-yl)-1′-isopropyl-10,10-dimethyl-4-((7-methyl-[1,2,4]triazolo[4,3-a]pyridin-3-yl)amino)-6^1,6^2,6^3,6^4,6^5,6^6-hexahydro-1^1H-8-oxa-2(4,2)-thiazola-1(5,3)-indola-6(1.3)-pyridazinacycloundecaphane-5,7-dione]",8.88 nM,4.18 nM,,,,
"CCn1c(-c2cc(C#CCN3CCC(=O)N(C)CC3)cnc2[C@H](C)OC)c2c3cc(ccc31)-c1csc(n1)C[C@H](Nc1nnc3cc(C)ccn13)C(=O)N1CCC[C@H](N1)C(=O)OCC(C)(C)C2 (atropisomer, axis not shown; (Ra)) [Compound Z957, (6^3S,4S2)-1-(5-(3-(4-methyl-1,4-diazepan-5-one-1-yl)prop-1-yn-1-yl)-(Ra)-2-((S)-1-methoxyethyl)pyridin-3-yl)-1^1-ethyl-10,10-dimethyl-4-((7-methyl-[,2,4]triazolo[4,3-a]pyridin-3-yl)amino)-6^1,6^2,6^3,6^4,6^5,6^6-hexahydro-1^1H-8-oxa-2(4,2)-thiazola-1(5,3)-indola-6(1,3)-pyridazinacycloundecaphane-5,7-dione]",,,,6.69 nM,2.47 nM,2.63 nM
"CCn1c(-c2cc(C#CCN3CCOC[C@@H](O)C3)cnc2[C@H](C)OC)c2c3cc(ccc31)-c1csc(n1)C[C@H](Nc1nnc3cc(C)ccn13)C(=O)N1CCC[C@H](N1)C(=O)OCC(C)(C)C2 (atropisomer, axis not shown; (Ra)) [Compound Z966, (6^3S,4S,Z)-1^1-ethyl-(Ra)-1^2-(5-(3-((S)-6-hydroxy-1,4-oxazepan-4-yl)prop-1-yn-1-yl)-2-((S)-1-methoxyethyl)pyridin-3-yl)-10,10-dimethyl-4-((7-methyl-[1,2,4]triazolo[4,3-a]pyridin-3-yl)amino)-6^1,6^2,6^3,6^4,6^5,6^6-hexahydro-1^1H-8-oxa-2(4,2)-thiazola-1(5,3)-indola-6(1,3)-pyridazinacycloundecaphane-5,7-dione]",9.41 nM,4.91 nM,,,,
"CCn1c(-c2cc(C#CCN3CC(C#N)C3)cnc2[C@H](C)OC)c2c3cc(ccc31)-c1csc(n1)C[C@H](Nc1nnc3cc(C)ccn13)C(=O)N1CCC[C@H](N1)C(=O)OCC(C)(C)C2 (atropisomer, axis not shown; (Ra)) [Compound Z974, 1-(3-(5-((6^3S,4S,Z)-1^1-ethyl-10,10-dimethyl-4-((7-methyl-[1,2,4]triazolo[4,3-a]pyridin-3-yl)amino)-5,7-dioxo-6^1,6^2,6^3,6^4,6^5,6^6-hexahydro-1^1H-8-oxa-2(4,2)-thiazola-1(5,3)-indola-6(1,3)-pyridazinacycloundecaphane-1^2-yl)-6-(Ra)—((S)-1-methoxyethyl)pyridin-3-yl)prop-2-yn-1-yl)azetidine-3-carbonitrile]",5.6 nM,3.46 nM,2.12 nM,,,
"CCn1c(-c2cc(C#CCN3CCCOCC3)cnc2[C@H](C)OC)c2c3cc(ccc31)-c1csc(n1)C[C@H](Nc1nnc3cc(C)ccn13)C(=O)N1CCC[C@H](N1)C(=O)OCC(C)(C)C2 [Compound Z955, (6^3S,4S2)-1^2-(5-(3-(1,4-oxazepan-4-yl)prop-1-yn-1-yl)-2-((S)-1-methoxyethyl)pyridin-3-yl)-1^1-ethyl-10,10-dimethyl-4-((7-methyl-[1,2,4]triazolo[4,3-a]pyridin-3-yl)amino)-6^1,6^2,6^3,6^4,6^5,6^6-hexahydro-1^1H-8-oxa-2(4,2)-thiazola-1(5,3)-indola-6(1,3)-pyridazinacycloundecaphane-5J7-dione]",4.82 nM,2.96 nM,2.6 nM,,,

# Further lines, results first:
"IC50 [1, 3]",IC50 (NCI-H441 cells; [4]),"IC50 ([2]; Homo sapiens, NCI-H441, 3 h)","IC50 [1, 5]",IC50 (NCI-H441 cells; [5]),IC50 [2],Compound
2.07 nM,0.66 nM,0.49 nM,,,,"CCn1c(-c2cc(C#CC34CCCN3CCC4)cnc2[C@H](C)OC)c2c3cc(ccc31)-c1csc(n1)C[C@H](NC(=O)[C@H]1[C@H](C)[C@@H]1C)C(=O)N1CCC[C@H](N1)C(=O)OCC(C)(C)C2 (atropisomer, axis not shown; (Ra)) [Compound Z794, (1r,2R,3S)—N-((6^3S,4S,Z)—(Ra)-1^2-ethyl-1^2-(2-((S)-1-methoxyethyl)-5-((tetrahydro-1H-pyrrolizin-7a(5H)-yl)ethynyl)pyridin-3-yl)-10,10-dimethyl-5,7-dioxo-6^1,6^2,6^3,6^4,6^5,6^6-hexahydro-1^1H-8-oxa-2(4,2)-thiazola-1(5,3)-indola-6(1,3)-pyridazinacycloundecaphane-4-yl)-2,3-dimethylcyclopropane-1-carboxamide]"
6.12 nM,4.93 nM,5.78 nM,,,,"CCn1c(-c2cc(C#CCN3CCC(F)(F)CC3)cnc2[C@H](C)OC)c2c3cc(ccc31)-c1csc(n1)C[C@H](Nc1nnc3cc(C)ccn13)C(=O)N1CCC[C@H](N1)C(=O)OCC(C)(C)C2 (atropisomer, axis not shown; (Ra)) [Compound Z958, (6^3S,4S,Z)—(Ra)-1-(5-(3-(4,4-difluoropiperidin-1-yl)prop-1-yn-1-yl)-2-((S)-1-methoxyethyl)pyridin-3-yl)-1^1-ethyl-10,10-dimethyl-4-((7-methyl-[1,2,4]triazolo[4,3-a]pyridin-3-yl)amino)-6^1,6^2,6^3,6^4,6^5,6^6-hexahydro-1^1H-8-oxa-2(4,2)-thiazola-1(5,3)-indola-6(1,3)-pyridazinacycloundecaphane-5,7-dione]"
565 nM,446 nM,,,,,"CCn1c(-c2cccnc2[C@H](C)OC)c2c3cc(ccc31)-c1csc(n1)C[C@H](NC(=O)C(C)(C)F)C(=O)N1CCC[C@H](N1)C(=O)OCC(C)(C)C2 (single isomer, unassigned) [Compound Z1]"
,,,151 nM,125 nM,61.3 nM,CCn1c(-c2cc(C(C)N3CCN(C)CC3)cnc2[C@H](C)OC)c2c3cc(ccc31)-c1csc(n1)C[C@H](NC(=O)[C@H]1[C@H](C)[C@@H]1C)C(=O)N1CCC[C@H](N1)C(=O)OCC1(CC1)C2 (stereo partly drawn) [Compound Z456]
